Measured values reported in patent publication US10028942B2 (priority 2013, dated 2018).

These compounds were tested against T1, DLK (Homo sapiens, UniProt Q12852). Conditions: read-out: DLK (Ki) μM; TR-FRET; 5 nM GST-tagged DLK (catalytic domain aa 1-520), 40 nM HIS-MKK4 K131M substrate, 30 μM ATP, 60 minutes.
T1 sequence (Q12852 1-520): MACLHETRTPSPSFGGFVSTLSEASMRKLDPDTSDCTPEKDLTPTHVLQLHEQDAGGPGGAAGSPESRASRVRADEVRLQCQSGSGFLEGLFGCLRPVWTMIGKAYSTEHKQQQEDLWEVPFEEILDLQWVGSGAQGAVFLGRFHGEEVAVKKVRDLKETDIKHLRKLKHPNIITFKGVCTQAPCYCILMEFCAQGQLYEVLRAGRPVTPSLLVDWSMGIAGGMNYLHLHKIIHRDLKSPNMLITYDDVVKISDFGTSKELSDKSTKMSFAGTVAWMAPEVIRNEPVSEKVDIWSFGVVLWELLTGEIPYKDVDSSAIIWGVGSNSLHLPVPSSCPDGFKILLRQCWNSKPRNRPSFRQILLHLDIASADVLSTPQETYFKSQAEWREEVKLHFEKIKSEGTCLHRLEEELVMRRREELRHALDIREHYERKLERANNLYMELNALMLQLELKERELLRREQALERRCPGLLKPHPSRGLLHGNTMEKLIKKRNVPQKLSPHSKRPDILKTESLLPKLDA
`CC(C)c1cc(-c2cnc3[nH]cc(C(F)(F)F)c3c2)nn1C1CN(C2COC2)C1` [Compound 1, 5-(5-isopropyl-1-(1-(oxetan-3-yl)azetidin-3-yl)-1H-pyrazol-3-yl)-3-(trifluoromethyl)-1H-pyrrolo[2,3-b]pyridine] showed a Ki of 0.034 µM.
In the case of `CC(C)n1nc(-c2cnc(N)c(C(F)(F)F)c2)cc1C(C)(C)O` [Compound 2, 2-(3-(6-amino-5-(trifluoromethyl)py-ridin-3-yl)-1-isopropyl-1H-pyrazol-5-yl)propan-2-ol], the Ki was 0.11 µM.
`CC(C)n1nc(-c2cnc(N)c(OC(F)F)c2)cc1C(C)(C)O` [Compound 3, 2-(3-(6-amino-5-(difluoromethoxy)pyridin-3-yl)-1-isopropyl-1H-pyrazol-5-yl)propan-2-ol] gave a Ki of 0.14 µM.
Work on `CC(C)n1nc(-c2cnc(N)c(C(F)(F)F)c2)cc1C(C)(C)C#N` [Compound 4, 2-(3-(6-amino-5-(trifluoromethyl)pyridin-3-yl)-1-isopropyl-1H-pyrazol-5-yl)-2-methylpropanenitrile] yielded a Ki of 0.78 µM.
In the case of `CC(C)n1nc(-c2cnc(N)c(OC(F)(F)F)c2)cc1C(C)(C)C#N` [Compound 6, 2-(3-(6-amino-5-(trifluoromethoxy)pyridin-3-yl)-1-isopropyl-1H-pyrazol-5-yl)-2-methylpropanenitrile], the Ki was 0.14 µM.
Work on `CC(=O)N1CC(c2cc(-c3cnc4[nH]cc(C(F)(F)F)c4c3)nn2CC2CC2)C1` [Compound 8, 1-(3-(1-(cyclopropylmethyl)-3-(3-(trifluoromethyl)-1H-pyrrolo[2,3-b]pyridin-5-yl)-1H-pyrazol-5-yl)azetidin-1-yl)ethanone] yielded a Ki of 0.01 µM.
`CC(=O)N1CC(c2cc(-c3cnc4[nH]cc(C)c4c3)nn2CC2CC2)C1` [Compound 9, 1-(3-(1-(cyclopropylmethyl)-3-(3-meth-yl-1H-pyrrolo[2,3-b]pyridin-5-yl)-1H-pyrazol-5-yl)azetidin-1-yl)ethan-one] was tested, and the Ki was 0.076 µM.
With `CC(=O)N1CC(c2cc(-c3cnc4[nH]cc(C(F)(F)F)c4c3)nn2C(C)C)C1` [Compound 10, 1-(3-(1-isopropyl-3-(3-(trifluorometh-yl)-1H-pyrrolo[2,3-b]pyridin-5-yl)-1H-pyrazol-5-yl)azetidin-1-yl)ethan-one] the Ki was 0.0064 µM.
Compound `CC(=O)N1CC(c2cc(-c3cnc4[nH]cc(C(F)(F)F)c4c3)nn2C)C1` [Compound 11, 1-(3-(1-methyl-3-(3-(trifluoromethyl)-1H-pyrrolo[2,3-b]pyridin-5-yl)-1H-pyrazol-5-yl)azetidin-1-yl)ethanone] has a Ki of 0.034 µM.
`CC(=O)N1CC(c2cc(-c3cnc4[nH]cc(C)c4c3)nn2C(C)C)C1` [Compound 12, 1-(3-(1-isopropyl-3-(3-methyl-1H-pyrrolo[2,3-b]pyridin-5-yl)-1H-pyrazol-5-yl)azetidin-1-yl)ethanone] showed a Ki of 0.026 µM.
In the case of `FC(F)(F)c1c[nH]c2ncc(-c3cc(C4CCOC4)n(C4CCOC4)n3)cc12` (centres unmarked) [Compound 15, 5-(1,5-bis(tetrahydrofuran-3-yl)-1H-pyrazol-3-yl)-3-(trifluoromethyl)-1H-pyrrolo[2,3-b]pyridine], the Ki was 0.035 µM.
`FC1(F)CCC(n2nc(-c3cnc4[nH]cc(C(F)(F)F)c4c3)cc2C2CCOC2)C1` (centres unmarked) [Compound 16, 5-(1-(3,3-difluorocyclopentyl)-5-(tetrahydrofuran-3-yl)-1H-pyrazol-3-yl)-3-(trifluoromethyl)-1H-pyrrolo[2,3-b]pyridine] was tested, and the Ki was 0.013 µM.
`Cc1c[nH]c2ncc(-c3cc(C4CCOC4)n(C4CC(F)(F)C4)n3)cc12` (centres unmarked) [Compound 19, 5-(1-(3,3-difluorocyclobutyl)-5-(tetrahydrofuran-3-yl)-1H-pyrazol-3-yl)-3-methyl-1H-pyrrolo[2,3-b]pyridine] was tested, and the Ki was 0.082 µM.
`CCc1c[nH]c2ncc(-c3cc(C4CCOC4)n(C4CC(F)(F)C4)n3)cc12` (centres unmarked) [Compound 20, 5-(1-(3,3-difluorocyclobutyl)-5-(tetra-hydrofuran-3-yl)-1H-pyrazol-3-yl)-3-ethyl-1H-pyrrolo[2,3-b]pyridine] gave a Ki of 0.025 µM.
In the case of `Nc1ncc(-c2cc(C3CCOC3)n(C3CCC(F)(F)C3)n2)cc1Cl` (centres unmarked) [Compound 23, 3-chloro-5-(1-(3,3-difluorocyclopent-yl)-5-(tetrahydrofuran-3-yl)-1H-pyra-zol-3-yl)pyridin-2-amine], the Ki was 0.35 µM.
For `Nc1ncc(-c2cc(C3CCOC3)n(C3CC(F)(F)C3)n2)cc1Cl` (centres unmarked) [Compound 25, 3-chloro-5-(1-(3,3-difluorocyclobut-yl)-5-(tetrahydrofuran-3-yl)-1H-pyra-zol-3-yl)pyridin-2-amine], the Ki was 0.55 µM.
Work on `Cc1c[nH]c2ncc(-c3cc(C4CCOCC4)n(C4CC(F)(F)C4)n3)cc12` [Compound 35, 5-(1-(3,3-difluorocyclobutyl)-5-(tetra-hydro-2H-pyran-4-yl)-1H-pyrazol-3-yl)-3-methyl-1H-pyrrolo[2,3-b]pyri-dine] yielded a Ki of 0.1 µM.
For `FC1(F)CC(n2nc(-c3cnc4[nH]cc(C(F)(F)F)c4c3)cc2C2CCOCC2)C1` [Compound 38, 5-(1-(3,3-difluroocyclobutyl)-5-(tetra-hydro-2H-pyran-4-yl)-1H-pyrazol-3-yl)-3-(trifluoromethyl)-1H-pyrrolo [2,3-b]pyridine], the Ki was 0.058 µM.
`Nc1ncc(-c2cc(C3CCOCC3)n(C3CC(F)(F)C3)n2)cc1Cl` [Compound 39, 3-chloro-5-(1-(3,3-difluorocyclobut-yl)-5-(tetrahydro-2H-pyran-4-yl)-1H-pyrazol-3-yl)pyridin-2-amine] was tested, and the Ki was 0.46 µM.
`CC(C)n1nc(-c2cnc3[nH]cc(C(F)(F)F)c3c2)cc1C1CCN(C)CC1` [Compound 40, 5-(1-isopropyl-5-(1-methylpiperidin-4-yl)-1H-pyrazol-3-yl)-3-(trifluoro-methyl)-1H-pyrrolo[2,3-b]pyridine] was tested, and the Ki was 0.00017 µM.
Compound `CC(C)n1nc(-c2cnc(N)c(C(F)(F)F)c2)cc1C1CCN(C)CC1` [Compound 41, 5-(1-isopropyl-5-(1-methylpiperidin-4-yl)-1H-pyrazol-3-yl)-3-(trifluoromethyl)pyridin-2-amine] has a Ki of 0.045 µM.
`Cc1c[nH]c2ncc(-c3cc(C4CCN(C)C(=O)C4)n(C4CC(F)(F)C4)n3)cc12` (centres unmarked) [Compound 42, 4-(1-(3,3-difluorocyclobutyl)-3-(3-meth-yl-1H-pyrrolo[2,3-b]pyridin-5-yl)-1H-pyrazol-5-yl)-1-methylpiperidin-2-one] gave a Ki of 0.25 µM.
`CN1CCC(c2cc(-c3cnc(N)c(Cl)c3)nn2C2CC(F)(F)C2)CC1=O` (centres unmarked) [Compound 43, 4-(3-(6-amino-5-chloropyridin-3-yl)-1-(3,3-difluorocyclobutyl)-1H-pyra-zol-5-yl)-1-methylpiperidin-2-one] gave a Ki of 0.06 µM.
`CN1CCC(c2cc(-c3cnc4[nH]cc(C(F)(F)F)c4c3)nn2C2CC(F)(F)C2)CC1=O` (centres unmarked) [Compound 45, 4-(1-(3,3-difluorocyclobutyl)-3-(3-(tri-fluoromethyl)-1H-pyrrolo[2,3-b]pyri-din-5-yl)-1H-pyrazol-5-yl)-1-meth-ylpiperidin-2-one] showed a Ki of 0.14 µM.
Work on `CC(C)n1nc(-c2cnc3[nH]cc(C#N)c3c2)cc1C1CCN(CC(F)(F)F)CC1` [Compound 46, 5-(1-isopropyl-5-(1-(2,2,2-trifluoroethyl)piperidin-4-yl)-1H-pyrazol-3-yl)-1H-pyrrolo[2,3-b]pyridine-3-carbonitrile] yielded a Ki of 0.028 µM.
`CC(=O)N1CCC(c2cc(-c3cnc4[nH]cc(C)c4c3)nn2C)CC1` [Compound 47, 1-(4-(1-methyl-3-(3-methyl-1H-pyrro-lo[2,3-b]pyridin-5-yl)-1H-pyrazol-5-yl)piperidin-1-yl)ethanone] gave a Ki of 0.047 µM.
In the case of `CC(=O)N1CCC(c2cc(-c3cnc4[nH]cc(C)c4c3)nn2C(C)C)CC1` [Compound 49, 1-(4-(1-isopropyl-3-(3-methyl-1H-pyrrolo[2,3-b]pyridin-5-yl)-1H-pyrazol-5-yl)piperidin-1-yl)ethanone], the Ki was 0.019 µM.
`CC(=O)N1CCC(c2cc(-c3cnc4[nH]cc(C(F)(F)F)c4c3)nn2C(C)C)CC1` [Compound 50, 1-(4-(1-isopropyl-3-(3-(trifluorometh-yl)-1H-pyrrolo[2,3-b]pyridin-5-yl)-1H-pyrazol-5-yl)piperidin-1-yl)etha-none] was tested, and the Ki was 0.0037 µM.
`CC(C)n1nc(-c2cnc3[nH]cc(C(F)(F)F)c3c2)cc1C1CCN(CC#N)CC1` [Compound 51, 2-(4-(1-isopropyl-3-(3-(trifluorometh-yl)-1H-pyrrolo[2,3-b]pyridin-5-yl)-1H-pyrazol-5-yl)piperidin-1-yl)aceto-nitrile] showed a Ki of 0.00017 µM.
`CC(C)n1nc(-c2cnc(N)c(C(F)(F)F)c2)cc1C1CCN(CC#N)CC1` [Compound 52, 2-(4-(3-(6-amino-5-(trifluoromethyl)pyridin-3-yl)-1-isopropyl-1H-pyrazol-5-yl)piperidin-1-yl)acetonitrile] was tested, and the Ki was 0.056 µM.
With `CC(C)n1nc(-c2cnc3[nH]cc(C(F)(F)F)c3c2)cc1C1CN(C2COC2)C1` [Compound 54, 5-(1-isopropyl-5-(1-(oxetan-3-yl)aze-tidin-3-yl)-1H-pyrazol-3-yl)-3-(trifluoro-methyl)-1H-pyrrolo[2,3-b]pyridine] the Ki was 0.00048 µM.
`FC(F)(F)c1c[nH]c2ncc(-c3cc(C4CN(C5COC5)C4)n(C4CCOC4)n3)cc12` (centres unmarked) [Compound 55, 5-(5-(1-(oxetan-3-yl)azetidin-3-yl)-1-(tetrahydrofuran-3-yl)-1H-pyrazol-3-yl)-3-(trifluoromethyl)-1H-pyrrolo[2,3-b]pyridine] showed a Ki of 0.019 µM.
